Values joined by “and” are separate entries in the source; they are usually repeats but may differ in a detail not shown here. Equal values may be shown once.
Columns and labels:
[1] = HepG2 cytotoxicity assay (Live/Dead staining); conditions: human, HepG2 cells
Method in brief: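 HepG2 cells (5000/well) treated with compounds at 1 to 20 µM, re-dosed with fresh compound every 24 h. Viability scored at 72 h by calcein-AM/ethidium homodimer (1 µM each, 10 min, 37 °C) live/dead staining under fluorescence microscopy.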

P. vivax schizonts = experiment: P. vivax liver stage assay, schizonts; assay type: cell-based, Plasmodium vivax; conditions: for Number of liverstage Schizonts per well: 20 µM, 8 dpi; for IC50: primary human hepatocytes, treatment day 5 to 8 post-infection, isolates 2 and 3
Experimental: We next evaluated the candidate compounds against liver-stage P. vivax (Fig. 5). P. vivax sporozoites were obtained from three independent patient isolates and cultured in primary human hepatocytes from a single donor lot using a 384-well microculture system as described previously. Cells were infected and treated with NMTis at 20 µM beginning day 5 post-infection until day 8 when the infection rates were quantified by fluorescent microscopy.
(§1) Accordingly, we applied dose–response curves of all the tested NMTs on parasite isolates 2 and 3 over concentrations up to 20 µM (Fig. 5c, d, Source Data file). We observed similar kinetics for all inhibitors, with a gradual decrease in parasite load upon increasing the drug concentration. […] Nuclei were counted in each well using DAPI staining as a measure of toxicity (Supplementary Fig. 86, Supplementary Source data). We used the phosphatidylinositol 4-kinase inhibitor (PI4Ki), MMV390048, as a positive control for eliminating schizonts[37],[38].
(§2) Plasmodium vivax liver stage assays were performed as described previously. Cryopreserved primary human hepatocytes (Cat No. F00995-P) and hepatocyte culture medium (HCM) (InVitroGroTM CP Medium) were obtained from Bioreclamation IVT, Inc., (Baltimore, MD, USA). Briefly, we seeded 384-well plates with primary hepatocytes from a single donor lot at a density of 25,000 cells per well. We then infected the hepatocytes with 14,000 freshly hand-dissected sporozoites per well. Cells were exposed to the compounds at indicated concentrations from day 5 post-infection. We used Pi4K inhibitor MMV390048, at 20 µM, as a positive control to eliminate P. vivax liver schizonts. We then proceeded to feed cultures every day, replacing the compounds until day 8 post-infection. Cells were fixed with 4% PFA, permeabilized with 1% Triton X-100, blocked with 2% BSA, and stained with DAPI and PvUIS4 antibodies to detect schizonts and hypnozoites forms by confocal microscopy. For antibody dilutions, PvUIS4 (kind gift from Dr. Noah Sather, Seattle Children’s Research Institute) was diluted 1:250 and the secondary antibody was anti-mouse AlexaFluor-594 (Cat # A-11005; RRID: AB_2534073) diluted 1:1000. DAPI was diluted 1:2000. The images were processed, analyzed and outlier cells were removed using IMARIS (Bitplane Inc.) image analysis software.

[2] = system: primary human hepatocytes; experiment: Nuclear counts (DAPI) in P. vivax-infected primary hepatocytes as measure of toxicity; assay type: cell-based; conditions: two technical replicates
Experimental: as §1, with “file).” for “file). We observed similar kinetics for all inhibitors, with a gradual decrease in parasite load upon increasing the drug concentration.”
as §2, with “For antibody dilutions, PvUIS4 (kind gift from Dr. Noah Sather, Seattle Children’s Research Institute) was diluted 1:250 and the secondary antibody was anti-mouse AlexaFluor-594 (Cat # A-11005; RRID: AB_2534073) diluted 1:1000.” left out
Supplementary Fig. 86. […] Nuclear […]
counts, normalized to DMSO controls, for NMT inhibitors across a dose response. Counts were ob-tained using DAPI staining from the P. vivax-infected wells quantified in Fig. 5d. Error bars represent the standard deviation of two technical replicates.
(1 picture or pasted object on this page, not shown here)

[3] = isolate 1, technical replicates (Fig. 5b)
[4] = isolate 2, technical replicates (Fig. 5b)
[5] = isolate 3, technical replicates (Fig. 5b)
[6] = Plasmodium vivax, Hepatocyte, 120 h

Compound	IC50 at 48 h [1] [µM]	Number of liverstage Schizonts per well (P. vivax schizonts; [3])	Number of liverstage Schizonts per well (P. vivax schizonts; [4])	Number of liverstage Schizonts per well (P. vivax schizonts; [5])	Schizonts per well (P. vivax schizonts; Isolate 2, 1.25 uM)	Schizonts per well (P. vivax schizonts; Isolate 2, 5 uM)	Schizonts per well (P. vivax schizonts; Isolate 3, 1.25 uM)	Schizonts per well (P. vivax schizonts; Isolate 3, 2.5 uM)	Schizonts per well (P. vivax schizonts; Isolate 3, 5 uM)	schizonts (fold change to DMSO) mean diff (P. vivax schizonts; isolate 1, 20 µM)	schizonts (fold change to DMSO) mean diff (P. vivax schizonts; isolate 2, 20 µM)	schizonts (fold change to DMSO) mean diff (P. vivax schizonts; isolate 3, 20 µM)	Nucleus counts per well ([2]; 1 uM)	Nucleus counts per well ([2]; 2.5uM)	Nucleus counts per well ([2]; 5 uM)	Nucleus counts per well ([2]; 10uM)	Nucleus counts per well ([2]; 20uM, P. vivax-infected wells)	Schizonts per well (P. vivax schizonts; Isolate 2, 2.5 uM)	Schizonts per well (P. vivax schizonts; Isolate 2, 10 uM)	Schizonts per well (P. vivax schizonts; Isolate 3, 10 uM)	other results
Cc1nn(C)c(C)c1CCOc1cccnc1-c1ccnc(N2CCNCC2)c1 [Compound 12a]	> 20	5 per well and 3 per well and 1 per well	1 per well and 0 per well and 3 per well	2 per well and 6 per well	12 per well and 16 per well and 11 per well	8 per well and 10 per well and 7 per well	12 per well and 15 per well	12 per well and 9 per well	7 per well and 5 per well	0.850	0.9245	0.7273	15610 per well and 14860 per well	15510 per well and 15490 per well	15510 per well and 14150 per well	13830 per well and 15570 per well	12100 per well and 13960 per well				IC50 (P. vivax schizonts; [6]): 3 to 3.8 µM
Cc1nn(C)c(C)c1CCOc1cccnc1-c1cccc(N2CCNCC2)c1 [Compound 12b]	> 20	1 per well and 2 per well and 0 per well	2 per well (2×) and 4 per well	1 per well and 2 per well	12 per well and 11 per well and 9 per well	8 per well and 7 per well and 5 per well	11 per well and 15 per well	9 per well and 11 per well	8 per well and 10 per well				16000 per well and 15090 per well	15680 per well and 16210 per well	15950 per well and 14130 per well	15200 per well and 15960 per well	12570 per well and 13810 per well	11 per well and 7 per well and 10 per well	2 per well and 4 per well	4 per well and 3 per well	Schizonts per well (P. vivax schizonts; Isolate 3, 20 uM (Fig. 5c-d)): 1 per well and 2 per well; IC50 (P. vivax schizonts; [6]): 2.3 to 4.6 µM
Cc1nn(C)c(C)c1CCOc1ccccc1-c1cccc(N2CCNCC2)c1 [Compound 12d]	> 20	1 per well (2×) and 0 per well	2 per well and 0 per well and 1 per well	2 per well and 1 per well	12 per well and 13 per well	9 per well and 7 per well and 11 per well	12 per well	6 per well and 11 per well	7 per well and 6 per well	0.967	0.9434	0.8977	15900 per well and 16970 per well	14920 per well and 16520 per well	15990 per well and 14720 per well	15680 per well and 15000 per well	12690 per well and 13950 per well	11 per well and 9 per well and 15 per well	8 per well and 5 per well	5 per well and 4 per well	Schizonts per well (P. vivax schizonts; Isolate 3, 20 uM (Fig. 5c-d)): 2 per well and 1 per well; IC50 (P. vivax schizonts; [6]): 3.3 to 4.3 µM
Cc1n[nH]c(C)c1CCOc1cc(F)ccc1-c1ccnc(N2CCNCC2)c1 [Compound 12q]		0 per well (2×) and 1 per well	3 per well and 4 per well and 1 per well	3 per well and 7 per well	11 per well and 15 per well and 12 per well	9 per well and 11 per well and 12 per well	12 per well and 13 per well	6 per well and 11 per well	7 per well and 6 per well	0.983	0.8491	0.6591	14830 per well and 14410 per well	12630 per well and 14350 per well	13780 per well and 14410 per well	15080 per well and 12510 per well	12010 per well and 14890 per well	7 per well and 9 per well and 13 per well	7 per well and 5 per well and 6 per well	5 per well and 8 per well	IC50 (P. vivax schizonts): 2.2 to 3.5 µM
Cc1nn(C)c(C)c1CCOc1ccc2ccccc2c1-c1ccnc(N2CCNCC2)c1 [Compound 30a]		0 per well	2 per well (2×) and 0 per well	4 per well and 0 per well	10 per well and 11 per well and 19 per well	6 per well and 8 per well and 11 per well	13 per well and 11 per well	7 per well and 6 per well	8 per well and 4 per well	1.000	0.9245	0.8636	15050 per well and 16480 per well	16520 per well and 15260 per well	14210 per well and 14260 per well	14230 per well and 14010 per well	13060 per well and 13510 per well	11 per well and 12 per well and 16 per well	4 per well and 7 per well and 8 per well	5 per well and 7 per well	IC50 (P. vivax schizonts): 2.9 to 4.3 µM

Source: PMC10480161, “Identification of potent and selective N-myristoyltransferase inhibitors of Plasmodium vivax liver stage hypnozoites and schizonts” (Nature Communications, 2023)
